In article PMC5218480 (PLoS ONE, 2017):

System: MV-4-11 cells
Assay: Gene expression microarray analysis (Affymetrix PrimeView) and GSEA
Assay type: cell-based, human
Parameters: RFU PODN (11730768_x_at) / Fold change /veh PODN (11730768_x_at) / RFU LINC00158 (11744669_a_at) / Fold change /veh LINC00158 (11744669_a_at) / RFU DUSP10 (11751237_a_at) / Fold change /veh DUSP10 (11751237_a_at) / RFU ID3 (11757404_x_at) / Fold change /veh ID3 (11757404_x_at) / RFU PLEKHG5 (11737974_s_at) / Fold change /veh PLEKHG5 (11737974_s_at) / RFU LRRC4B (11730491_at) / Fold change /veh LRRC4B (11730491_at) / RFU GIMAP4 (11747438_a_at) / Fold change /veh GIMAP4 (11747438_a_at) / RFU KRT8 (11758183_x_at) / Fold change /veh KRT8 (11758183_x_at) / RFU CNN1 (11734310_a_at) / Fold change /veh CNN1 (11734310_a_at) / RFU VPS37D (11726825_at) / Fold change /veh VPS37D (11726825_at) / RFU C10orf10 (11716522_x_at) / Fold change /veh C10orf10 (11716522_x_at) / RFU KIR2DL2 /// KIR2DL4 /// KIR2DL5A /// KIR2DL5B /// KIR2DS1 /// KIR2DS2 /// KIR2DS3 /// KIR2DS4 /// KIR3DL3 /// KIR3DL3 /// KIR3DS1 (11738374_at) / Fold change /veh KIR2DL2 /// KIR2DL4 /// KIR2DL5A /// KIR2DL5B /// KIR2DS1 /// KIR2DS2 /// KIR2DS3 /// KIR2DS4 /// KIR3DL3 /// KIR3DL3 /// KIR3DS1 (11738374_at) / RFU C1QL1 (11718748_at) / Fold change /veh C1QL1 (11718748_at) / RFU TMPRSS4 (11747572_a_at) / Fold change /veh TMPRSS4 (11747572_a_at) / RFU HAMP (11756126_x_at) / Fold change /veh HAMP (11756126_x_at) / RFU RNFT2 (11725882_a_at) / Fold change /veh RNFT2 (11725882_a_at) / RFU NR4A2 (11747474_a_at) / Fold change /veh NR4A2 (11747474_a_at) / RFU ABCC12 (11746883_a_at) / Fold change /veh ABCC12 (11746883_a_at) / RFU TMEM136 (11760407_x_at) / Fold change /veh TMEM136 (11760407_x_at) / RFU CLDN22 /// WWC2 (11732394_at) / Fold change /veh CLDN22 /// WWC2 (11732394_at) / RFU HLA-DPB1 (11760878_x_at) / Fold change /veh HLA-DPB1 (11760878_x_at) / RFU SPINT1 (11716480_a_at) / Fold change /veh SPINT1 (11716480_a_at) / RFU GAP43 (11754022_s_at) / Fold change /veh GAP43 (11754022_s_at) / RFU A4GNT (11735810_at) / Fold change /veh A4GNT (11735810_at) / RFU PRB3 (11715151_x_at) / Fold change /veh PRB3 (11715151_x_at) / RFU TUBB4B (11761932_at) / Fold change /veh TUBB4B (11761932_at) / RFU CAPN14 (11732068_a_at) / Fold change /veh CAPN14 (11732068_a_at) / RFU TMCC2 (11721928_a_at) / Fold change /veh TMCC2 (11721928_a_at) / RFU IRGQ (11745062_a_at) / Fold change /veh IRGQ (11745062_a_at) / RFU FAM174B (11720279_a_at) / Fold change /veh FAM174B (11720279_a_at) / RFU TMPRSS4 (11748680_a_at) / Fold change /veh TMPRSS4 (11748680_a_at) / RFU FAM212B (11763350_a_at) / Fold change /veh FAM212B (11763350_a_at) / RFU PLEKHG5 (11743358_a_at) / Fold change /veh PLEKHG5 (11743358_a_at) / RFU ZSCAN30 (11745921_a_at) / Fold change /veh ZSCAN30 (11745921_a_at) / RFU CMKLR1 (11741424_a_at) / Fold change /veh CMKLR1 (11741424_a_at) / RFU LOC101060620 /// MAPK8IP1 (11723275_at) / Fold change /veh LOC101060620 /// MAPK8IP1 (11723275_at) / RFU SPTSSB (11747773_x_at) / Fold change /veh SPTSSB (11747773_x_at) / RFU PRSS12 (11739890_at) / Fold change /veh PRSS12 (11739890_at) / RFU BIN1 (11741810_x_at) / Fold change /veh BIN1 (11741810_x_at) / RFU WNT11 (11732464_a_at) / Fold change /veh WNT11 (11732464_a_at) / RFU C10orf10 (11716521_a_at) / Fold change /veh C10orf10 (11716521_a_at) / RFU C5orf56 (11738089_at) / Fold change /veh C5orf56 (11738089_at) / RFU CYB561 (11721691_x_at) / Fold change /veh CYB561 (11721691_x_at) / RFU ANKRD19P (11752326_a_at) / Fold change /veh ANKRD19P (11752326_a_at) / RFU OR2T12 /// OR2T33 /// OR2T8 (11738714_s_at) / Fold change /veh OR2T12 /// OR2T33 /// OR2T8 (11738714_s_at) / RFU VCAN (11748164_a_at) / Fold change /veh VCAN (11748164_a_at) / RFU JSRP1 (11732532_at) / Fold change /veh JSRP1 (11732532_at) / RFU KRTAP10-11 (11738290_x_at) / Fold change /veh KRTAP10-11 (11738290_x_at) / RFU MYO3A (11730013_a_at) / Fold change /veh MYO3A (11730013_a_at) / RFU EBF3 (11725865_a_at) / Fold change /veh EBF3 (11725865_a_at) / RFU CAMK2N1 (11719241_x_at) / Fold change /veh CAMK2N1 (11719241_x_at) / RFU C5orf56 (11738088_a_at) / Fold change /veh C5orf56 (11738088_a_at) / RFU OLFML3 (11715873_a_at) / Fold change /veh OLFML3 (11715873_a_at) / RFU LOC100653217 /// NTM (11731650_a_at) / Fold change /veh LOC100653217 /// NTM (11731650_a_at) / RFU MAPK11 (11762145_a_at) / Fold change /veh MAPK11 (11762145_a_at) / RFU FIZ1 (11724087_x_at) / Fold change /veh FIZ1 (11724087_x_at) / RFU OASL (11726364_x_at) / Fold change /veh OASL (11726364_x_at) / RFU SOX15 (11748057_x_at) / Fold change /veh SOX15 (11748057_x_at) / RFU CD79A (11719716_a_at) / Fold change /veh CD79A (11719716_a_at) / RFU HIST1H1D (11736915_at) / Fold change /veh HIST1H1D (11736915_at) / RFU CASKIN2 (11723855_a_at) / Fold change /veh CASKIN2 (11723855_a_at) / RFU LOC730098 (11760151_x_at) / Fold change /veh LOC730098 (11760151_x_at) / RFU OR4N2 (11742367_at) / Fold change /veh OR4N2 (11742367_at) / RFU PRRT2 (11749266_a_at) / Fold change /veh PRRT2 (11749266_a_at) / RFU SNX32 (11753110_a_at) / Fold change /veh SNX32 (11753110_a_at) / RFU CDHR5 (11726645_a_at) / Fold change /veh CDHR5 (11726645_a_at) / RFU RCAN1 (11760418_a_at) / Fold change /veh RCAN1 (11760418_a_at) / RFU FAM167A (11723789_a_at) / Fold change /veh FAM167A (11723789_a_at) / RFU FAM26E (11764081_at) / Fold change /veh FAM26E (11764081_at) / RFU ISYNA1 (11749810_s_at) / Fold change /veh ISYNA1 (11749810_s_at) / RFU ACY1 (11761880_at) / Fold change /veh ACY1 (11761880_at) / RFU 11764098_at / Fold change /veh 11764098_at / RFU SAMD14 (11745864_x_at) / Fold change /veh SAMD14 (11745864_x_at) / RFU NPB (11741838_a_at) / Fold change /veh NPB (11741838_a_at) / RFU TMPRSS6 (11731388_a_at) / Fold change /veh TMPRSS6 (11731388_a_at) / RFU KRTAP10-2 (11738614_at) / Fold change /veh KRTAP10-2 (11738614_at) / RFU ARHGAP8 /// PRR5-ARHGAP8 (11727945_x_at) / Fold change /veh ARHGAP8 /// PRR5-ARHGAP8 (11727945_x_at) / RFU KRTAP5-7 /// NADSYN1 (11734609_at) / Fold change /veh KRTAP5-7 /// NADSYN1 (11734609_at) / RFU RASL12 (11751679_a_at) / Fold change /veh RASL12 (11751679_a_at) / RFU CDKN2B (11736163_a_at) / Fold change /veh CDKN2B (11736163_a_at) / RFU PRF1 (11729649_at) / Fold change /veh PRF1 (11729649_at) / RFU, ZNF638 /// ZNF638-IT1 / Fold change vs veh, ZNF638 /// ZNF638-IT1 / RFU, PANK3 / Fold change vs veh, PANK3 / RFU, SH3YL1 / Fold change vs veh, SH3YL1 / RFU, ZEB2 / Fold change vs veh, ZEB2 / RFU, NRIP1 / Fold change vs veh, NRIP1 / RFU, PTTG1IP / Fold change vs veh, PTTG1IP / RFU, CAPN2 / Fold change vs veh, CAPN2 / RFU, MED14 / Fold change vs veh, MED14 / RFU, SNORA58 / Fold change vs veh, SNORA58 / RFU, C1orf63 / Fold change vs veh, C1orf63 / RFU, LRRFIP1 / Fold change vs veh, LRRFIP1 / RFU, NDUFAF7 / Fold change vs veh, NDUFAF7 / RFU, SLC12A2 / Fold change vs veh, SLC12A2 / RFU, IBTK / Fold change vs veh, IBTK / RFU, ESF1 / Fold change vs veh, ESF1 / Fold change vs veh, TMEM50B / RFU, TAOK1 / Fold change vs veh, TAOK1 / RFU, ACBD3 / Fold change vs veh, ACBD3 / RFU, TMA16 / Fold change vs veh, TMA16 / RFU, RWDD3 / Fold change vs veh, RWDD3 / RFU, BCAT1 / Fold change vs veh, BCAT1 / RFU, EDEM3 / Fold change vs veh, EDEM3 / RFU, TMEM33 / Fold change vs veh, TMEM33 / RFU, WDR75 / Fold change vs veh, WDR75 / RFU, AHCTF1 / Fold change vs veh, AHCTF1 / RFU, TFRC / Fold change vs veh, TFRC / RFU, ZDHHC17 / Fold change vs veh, ZDHHC17 / RFU, NOM1 / Fold change vs veh, NOM1 / RFU, ARL8B / Fold change vs veh, ARL8B / RFU, ZBTB11 / Fold change vs veh, ZBTB11 / RFU, TAMM41 / Fold change vs veh, TAMM41 / RFU, KIAA1704 /// LOC100996395 / Fold change vs veh, KIAA1704 /// LOC100996395 / RFU, ING1 / Fold change vs veh, ING1 / RFU, TRMT61B / Fold change vs veh, TRMT61B / RFU, FUBP3 / Fold change vs veh, FUBP3 / RFU, TP53 / Fold change vs veh, TP53 / RFU, TNKS2 / Fold change vs veh, TNKS2 / RFU, ZFP14 / Fold change vs veh, ZFP14 / RFU, ACTR2 / Fold change vs veh, ACTR2 / RFU, PPP3R1 / Fold change vs veh, PPP3R1 / RFU, PIK3R1 / Fold change vs veh, PIK3R1 / RFU, HNRNPA1 / Fold change vs veh, HNRNPA1 / RFU, RNF170 / Fold change vs veh, RNF170 / RFU, ZNF28 / Fold change vs veh, ZNF28 / RFU, RNGTT / Fold change vs veh, RNGTT / RFU, OGT / Fold change vs veh, OGT / RFU, BRD1 / Fold change vs veh, BRD1 / RFU, MARS / Fold change vs veh, MARS / RFU, ZNF655 / Fold change vs veh, ZNF655 / RFU, FAHD1 / Fold change vs veh, FAHD1 / RFU, BDP1 / Fold change vs veh, BDP1 / RFU, LRRCC1 / Fold change vs veh, LRRCC1 / RFU, ARID1A / Fold change vs veh, ARID1A / RFU, ZNF146 / Fold change vs veh, ZNF146 / RFU, ZNF330 / Fold change vs veh, ZNF330 / RFU, GPN3 / Fold change vs veh, GPN3 / RFU, C9orf123 / Fold change vs veh, C9orf123 / RFU, N4BP2L2 / Fold change vs veh, N4BP2L2 / RFU, ARFIP1 / Fold change vs veh, ARFIP1 / RFU, FAM179B / Fold change vs veh, FAM179B / RFU, BCL10 / Fold change vs veh, BCL10 / RFU, UHRF1BP1L / Fold change vs veh, UHRF1BP1L / RFU, BET1 / Fold change vs veh, BET1 / RFU, CNOT2 / Fold change vs veh, CNOT2 / RFU, ZNF268 / Fold change vs veh, ZNF268 / Fold change vs veh, ZNF507 / RFU, DGCR2 / Fold change vs veh, DGCR2 / RFU, WDSUB1 / Fold change vs veh, WDSUB1 / Fold change vs veh, HSP90B1 /// MIR3652 / RFU, ADSS / Fold change vs veh, ADSS / RFU, GK / Fold change vs veh, GK / RFU, ZNF148 / Fold change vs veh, ZNF148 / RFU, TAF9 / Fold change vs veh, TAF9 / RFU, SLC1A5 / Fold change vs veh, SLC1A5 / RFU, SLMO2 / Fold change vs veh, SLMO2 / RFU, ABCC4 / Fold change vs veh, ABCC4 / RFU, LOC101060439 /// RAP1B / Fold change vs veh, LOC101060439 /// RAP1B / RFU, RFX7 / Fold change vs veh, RFX7 / RFU, GTPBP10 / Fold change vs veh, GTPBP10 / RFU, CNEP1R1 / Fold change vs veh, CNEP1R1 / RFU, BIVM-ERCC5 /// ERCC5 / Fold change vs veh, BIVM-ERCC5 /// ERCC5 / RFU, ILF3 / Fold change vs veh, ILF3 / RFU 11762660_at / Fold change /veh 11762660_at / RFU VCAN (11757783_s_at) / Fold change /veh VCAN (11757783_s_at) / RFU DDX43 (11728927_at) / Fold change /veh DDX43 (11728927_at) / RFU KRT8 (11758188_x_at) / Fold change /veh KRT8 (11758188_x_at) / RFU NKD1 (11759106_at) / Fold change /veh NKD1 (11759106_at) / RFU SRD5A1 (11742802_a_at) / Fold change /veh SRD5A1 (11742802_a_at) / RFU TPSAB1 /// TPSB2 (11721975_s_at) / Fold change /veh TPSAB1 /// TPSB2 (11721975_s_at) / RFU GSTM3 (11746129_a_at) / Fold change /veh GSTM3 (11746129_a_at) / RFU IL23R (11737362_x_at) / Fold change /veh IL23R (11737362_x_at) / RFU TMEM51 (11727254_a_at) / Fold change /veh TMEM51 (11727254_a_at) / RFU PIWIL2 (11732686_x_at) / Fold change /veh PIWIL2 (11732686_x_at) / RFU ORM1 (11744905_x_at) / Fold change /veh ORM1 (11744905_x_at) / RFU CCDC152 (11743942_at) / Fold change /veh CCDC152 (11743942_at) / RFU ECM1 (11717891_a_at) / Fold change /veh ECM1 (11717891_a_at) / RFU IL23R (11748794_a_at) / Fold change /veh IL23R (11748794_a_at) / RFU TNFAIP8L3 (11732012_x_at) / Fold change /veh TNFAIP8L3 (11732012_x_at) / RFU MBOAT4 (11741988_at) / Fold change /veh MBOAT4 (11741988_at) / RFU 11764193_at / Fold change /veh 11764193_at / RFU TMEM53 (11763286_at) / Fold change /veh TMEM53 (11763286_at) / RFU MAGEB2 (11727129_at) / Fold change /veh MAGEB2 (11727129_at) / RFU TMEM200A (11744735_a_at) / Fold change /veh TMEM200A (11744735_a_at) / RFU CCDC152 (11751479_a_at) / Fold change /veh CCDC152 (11751479_a_at) / RFU FAM211A (11726209_a_at) / Fold change /veh FAM211A (11726209_a_at) / RFU RGS16 (11746705_a_at) / Fold change /veh RGS16 (11746705_a_at) / RFU VCAN (11755009_s_at) / Fold change /veh VCAN (11755009_s_at) / RFU RHOB (11743442_s_at) / Fold change /veh RHOB (11743442_s_at) / RFU RGS16 (11720943_a_at) / Fold change /veh RGS16 (11720943_a_at) / RFU RGS16 (11720944_at) / Fold change /veh RGS16 (11720944_at) / RFU, VPS4B / Fold change vs veh, VPS4B / RFU, CREB1 / Fold change vs veh, CREB1 / RFU, DNAJC13 / Fold change vs veh, DNAJC13 / RFU, GNAQ / Fold change vs veh, GNAQ / RFU, CDK5R1 / Fold change vs veh, CDK5R1 / RFU, ZRANB3 / Fold change vs veh, ZRANB3 / RFU, CUL4A / Fold change vs veh, CUL4A / RFU, CCNY / Fold change vs veh, CCNY / RFU, UFL1 / Fold change vs veh, UFL1 / RFU, COG3 / Fold change vs veh, COG3 / RFU, DIAPH2 / Fold change vs veh, DIAPH2 / RFU, SKA2 / Fold change vs veh, SKA2 / RFU, AFF3 / Fold change vs veh, AFF3 / RFU, LMF1 / Fold change vs veh, LMF1 / RFU, IPO11 / Fold change vs veh, IPO11 / RFU, DFFB / Fold change vs veh, DFFB / RFU, FOXP1 / Fold change vs veh, FOXP1 / RFU, CARD8 / Fold change vs veh, CARD8 / RFU, STRN3 / Fold change vs veh, STRN3 / RFU, ADK / Fold change vs veh, ADK / RFU, RASSF2 / Fold change vs veh, RASSF2 / RFU, WIPF1 / Fold change vs veh, WIPF1 / RFU, LARP1B / Fold change vs veh, LARP1B / RFU, RASA1 / Fold change vs veh, RASA1 / RFU, RB1 / Fold change vs veh, RB1 / RFU, PPFIA1 / Fold change vs veh, PPFIA1 / RFU, MAT2A / Fold change vs veh, MAT2A / RFU, CCT5 / Fold change vs veh, CCT5 / RFU, WDR92 / Fold change vs veh, WDR92 / RFU, CUX1 / Fold change vs veh, CUX1 / RFU, TTC7A / Fold change vs veh, TTC7A / RFU, TMEM135 / Fold change vs veh, TMEM135 / RFU, DEPTOR / Fold change vs veh, DEPTOR / RFU, CPM / Fold change vs veh, CPM / RFU, DNAJB6 / Fold change vs veh, DNAJB6 / RFU, CACNA2D3 / Fold change vs veh, CACNA2D3 / RFU, DTX4 / Fold change vs veh, DTX4 / RFU, TFCP2 / Fold change vs veh, TFCP2 / RFU, GMCL1 /// GMCL1P1 / Fold change vs veh, GMCL1 /// GMCL1P1 / RFU, AEBP2 / Fold change vs veh, AEBP2 / RFU, SNHG1 /// SNORD22 /// SNORD25 /// SNORD26 /// SNORD27 /// SNORD28 /// SNORD29 /// SNORD31 / Fold change vs veh, SNHG1 /// SNORD22 /// SNORD25 /// SNORD26 /// SNORD27 /// SNORD28 /// SNORD29 /// SNORD31 / Fold change (Aza/veh), C12orf56 (ProbeSet 11735607_a_at) / Fold change (ACY-1035/veh), C12orf56 (ProbeSet 11735607_a_at) / Fold change (Aza/veh), FGFR1OP (ProbeSet 11751329_s_at) / Fold change (ACY-1035/veh), FGFR1OP (ProbeSet 11751329_s_at) / Fold change (Aza/veh), VPS36 (ProbeSet 11739960_a_at) / Fold change (ACY-1035/veh), VPS36 (ProbeSet 11739960_a_at) / RFU SYPL1 (11715823_x_at) / Fold change /veh SYPL1 (11715823_x_at) / RFU IGFBP7 (11715501_s_at) / Fold change /veh IGFBP7 (11715501_s_at) / RFU REEP3 (11722064_at) / Fold change /veh REEP3 (11722064_at) / RFU IGLL1 (11728026_x_at) / Fold change /veh IGLL1 (11728026_x_at): dose or concentration left out as unconfirmed
Conditions: MV-4-11 cells, 48 hours

Nc1ccc(-c2cccs2)cc1NC(=O)c1ccc2c(c1)cc(C1CC1)n2CCN1CCOCC1 [ACY-1035]
RFU TUBB4B (11761932_at): 19.33 RFU
